Experimental data as given in patent publication US8324250B2 (Hoffmann-La Roche Inc., priority 2009, dated 2012).

Target: T1, recombinant human NK3 receptor (Homo sapiens, UniProt P29371)
T1 construct: expressed in transfected cells; host or cells: HEK293 cells (transient expression), membranes
T1 sequence (P29371 1-465): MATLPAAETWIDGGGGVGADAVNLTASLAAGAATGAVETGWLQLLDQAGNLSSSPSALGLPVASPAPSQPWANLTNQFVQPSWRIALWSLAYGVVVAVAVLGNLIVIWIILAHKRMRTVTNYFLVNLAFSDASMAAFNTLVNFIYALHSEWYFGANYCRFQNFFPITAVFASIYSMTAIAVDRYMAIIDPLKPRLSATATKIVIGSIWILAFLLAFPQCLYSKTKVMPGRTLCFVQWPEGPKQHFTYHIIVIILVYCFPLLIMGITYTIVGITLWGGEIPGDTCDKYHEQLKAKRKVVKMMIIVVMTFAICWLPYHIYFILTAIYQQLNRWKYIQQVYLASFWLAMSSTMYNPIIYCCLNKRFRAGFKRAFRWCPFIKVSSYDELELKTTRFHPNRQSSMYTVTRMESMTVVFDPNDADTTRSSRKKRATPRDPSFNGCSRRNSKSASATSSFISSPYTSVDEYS
Experiment: [3H]SR142801 competition binding assay
Conditions: membranes from HEK293 cells transiently expressing recombinant human NK3 receptor; [3H]SR142801 radioligand; 75 min at RT; Ki by Cheng-Prussoff; read-out: Data Ki (hNK-3 receptor affinity)
Procedure: [^3H]SR142801 Competition Binding Assay
hNK3 receptor binding experiment were performed using [^3H]SR142801 (Catalog No. TRK1035, specific activity: 74.0 Ci/mmol, Amersham, GE Healthcare UK limited, Buckinghamshire, UK) and membrane isolated from HEK293 cells transiently expressing recombinant human NK3 receptor. After thawing, the membrane homogenates were centrifuged at 48,000×g for 10 min at 4° C., the pellets were resuspended in the 50 mM Tris-HCl, 4 mM MnCl2, 1 μM phosphoramidon, 0.1% BSA binding buffer at pH 7.4 to a final assay concentration of 5 μg protein/well. […] At the end of the incubation, membranes were filtered onto unitfilter (96-well white microplate with bonded GF/C filter preincubated 1 h in 0.3% PEI+0.3% BSA, Packard BioScience, Meriden, Conn.) with a Filtermate 196 harvester (Packard BioScience) and washed 4 times with ice-cold 50 mM Tris-HCl, pH 7.4 buffer. Nonspecific binding was measured in the presence of 10 μM SB222200 for both radioligands. The radioactivity on the filter was counted (5 min) on a Packard Top-count microplate scintillation counter with quenching correction after addition of 45 μl of microscint 40 (Can berra Packard S. A., Zurich, Switzerland) and shaking for 1 h. Inhibition curves were fitted according to the Hill equation: y=100/(1+(x/IC50)^nH), where nH=slope factor using Excel-fit 4 software (Microsoft). IC50 values were derived from the inhibition curve and the affinity constant (Ki) values were calculated using the Cheng-Prussoff equation Ki═IC50/(1+[L]/KD) where [L] is the concentration of radioligand and KD is its dissociation constant at the receptor, derived from the saturation isotherm. All experiments were performed in duplicate and the mean±standard error (SEM) of the individual Ki values was calculated.

Row | Structure (SMILES) | Ki [nM]
1 | CC(C)N(NC(=O)C1(c2ccc(F)cc2)CCN(C(=O)c2ccc(-c3ccc(F)cc3)cc2)CC1)c1ccc(F)cc1 [Example 185, 1-(4′-Fluoro-biphenyl-4-carbonyl)-4-(4-fluoro-phenyl)-piperidine-4-carboxylic acid N′-(4-fluoro-phenyl)-N′-ispropyl-hydrazide] | 63.6
2 | C[C@H](NC(=O)C1(c2ccccc2)CCN(C(=O)N2CCN(c3ccc(Cl)cc3)CC2)CC1)c1ccccc1 [Example 219, 1-[4-(4-Chloro-phenyl)-piperazine-1-carbonyl]-4-phenyl-piperidine-4-carboxylic acid ((S)-1-phenyl-ethyl)-amide] | 12.5
3 | C[C@H](NC(=O)C1(c2ccc(F)cc2)CCN(C(=O)c2ccc(-c3ccc(F)cc3)cc2)CC1)c1ccc(F)cc1 [Example 89, 1-(4′-Fluoro-biphenyl-4-carbonyl)-4-(4-fluoro-piperidine-phenyl)-4-carboxylic acid [(S)-1-(4-fluoro-phenyl)-ethyl]-amide] | 18.3
4 | Cc1noc(-c2ccc(C(=O)N3CCC(C(=O)N[C@@H](C)c4ccccc4)(c4ccc(F)cc4)CC3)cc2)n1 [Example 81, 4-(4-Fluoro-phenyl)-1-[4-(3-methyl-[1,2,4]oxa-diazol-5-yl)-benzoyl]-piperidine-4-carboxylic acid ((S)-1-phenyl-ethyl)-amide] | 6
5 | Cc1noc(-c2ccc(C(=O)N3CCC(C(=O)N[C@@H](C)c4ccc(F)cc4)(c4ccccc4)CC3)cn2)n1 [Example 82, 1-[6-(3-Methyl-[1,2,4]oxa-diazol-5-yl)-pyridine-3-carbonyl]-4-phenyl-piperidine-4-carboxylic acid [(S)-1-(4-fluoro-phenyl)-ethyl]-amide] | 5.3
6 | Cc1noc(-c2ccc(C(=O)N3CCC(C(=O)N[C@@H](C)c4cccc(F)c4)(c4ccc(F)cc4)CC3)cc2)n1 [Example 161, 4-(4-Fluoro-phenyl)-1-[4-(3-methyl-[1,2,4]oxadiazol-5-yl)-benzoyl]-piperidine-4-carboxylic acid [(S)-1-(3-fluoro-phenyl)-ethyl]-amide] | 4.6
7 | C[C@H](NC(=O)C1(c2ccccc2)CCN(C(=O)c2ccc(-c3cccnc3)cc2)CC1)c1ccccc1 [Example 53, 4-Phenyl-1-(4-pyridin-3-yl-benzoyl)-piperidine-4-carboxylic acid ((S)-1-phenyl-ethyl)-amide] | 23.2
8 | C[C@H](NC(=O)C1(c2ccccc2)CCN(C(=O)c2ccc(-c3ccc(C(F)(F)F)cc3)cc2)CC1)c1ccccc1 [Example 5, 4-Phenyl-1-(4′-trifluoromethyl-biphenyl-4-carbonyl)-piperidine-4-carboxylic acid ((S)-1-phenyl-ethyl)-amide] | 23.9
9 | C[C@H](NC(=O)C1(c2ccccc2)CCN(C(=O)c2ccc(-c3ccc(F)cc3)cc2)CC1)c1ccc(F)cc1 [Example 79, 1-(4′-Fluoro-biphenyl-4-carbonyl)-4-phenyl-piperidine-4-carboxylic acid [(S)-1-(4-fluoro-phenyl)-ethyl]-amide] | 9.5
10 | C[C@H](NC(=O)C1(c2ccccc2)CCN(C(=O)N2CCC(c3ccccc3)CC2)CC1)c1ccccc1 [Example 204, 4-Phenyl-1-(4-phenyl-piperidine-1-carbonyl)-piperidine-4-carboxylic acid ((S)-1-phenyl-ethyl)-amide] | 79.2
11 | C[C@H](NC(=O)C1(c2ccccc2)CCN(C(=O)C2CCN(c3ccc(C#N)cn3)CC2)CC1)c1ccccc1 [Example 61, 1-(5′-Cyano-3,4,5,6-tetrahydro-2H-[1,2′]bipyrid-inyl-4-carbonyl)-4-phenyl-piperidine-4-carboxylic acid ((S)-1-phenyl-ethyl)-amide] | 37.9
12 | C[C@H](NC(=O)C1(c2ccccc2)CCN(C(=O)c2ccc(-c3ncccn3)cc2)CC1)c1ccccc1 [Example 47, 4-Phenyl-1-(4-pyrimidin-2-yl-benzoyl)-piperidine-4-carboxylic acid ((S)-1-phenyl-ethyl)-amide] | 24.7
13 | C[C@H](NC(=O)C1(c2ccccc2)CCN(C(=O)c2ccc(-n3cccc3)cc2)CC1)c1ccccc1 [Example 18, 4-Phenyl-1-(4-pyrrol-l-yl-benzoyl)-piperidine-4-carboxylic acid ((S)-1-phenyl-ethyl)-amide] | 96.6
14 | Cc1nc(-c2ccc(C(=O)N3CCC(C(=O)NC(c4ccc(F)cc4)C(F)(F)F)(c4ccc(F)cc4)CC3)cc2)no1 (stereo not drawn) [Example 165, 4-(4-Fluoro-phenyl)-1-[4-(5-methyl-[1,2,4]oxadiazol-3-yl)-benzoyl]-piperidne-4-carboxylic acid [2,2,2-trifluoro-1-(4-fluoro-phenyl)-ethyl]-amide] | 66
15 | C[C@H](NC(=O)C1(c2ccccc2)CCN(C(=O)c2ccc(-c3cncnc3)cc2)CC1)c1ccccc1 [Example 44, 4-Phenyl-1-(4-pyrimidin-5-yl-benzoyl)-piperidine-4-carboxylic acid ((S)-1-phenyl-ethyl)-amide] | 78.5
16 | C[C@H](NC(=O)C1(c2ccccc2)CCN(C(=O)c2ccc(-c3nnn(C)n3)cc2)CC1)c1ccccc1 [Example 72, 1-[4-(2-Methyl-2H-tetrazol-5-yl)-benzoyl]-4-phenyl-piperidine-4-carboxylic acid ((S)-1-phenyl-ethyl)-amide] | 15.8
17 | C[C@H](NC(=O)C1(c2ccc(F)cc2)CCN(C(=O)c2ccc(N3CCS(=O)(=O)CC3)cc2)CC1)C1CCCCC1 [Example 91, 1-[4-(1,1-Dioxo-1λ6 thiomor-pholin-4-yl)-benzoyl]-4-(4-fluoro-phenyl)-piperidine-4-carboxylic acid ((S)-1-cyclohexyl-ethyl)-amide] | 7.6
18 | C[C@H](NC(=O)C1(c2ccccc2)CCN(C(=O)c2ccc(N3CCS(=O)(=O)CC3)cc2)CC1)C1CCCCC1 [Example 80, 1-[4-(1,1 - Dioxo-1λ6-thiomorpholin-4-yl)-benzoyl]-4-phenyl-piperidine-4-carboxylic acid ((S)-1-cyclohexyl-ethyl)-amide] | 4.1
19 | Cc1noc(-c2ccc(C(=O)N3CCC(C(=O)N[C@@H](C)c4ccc(F)cc4)(c4ccc(F)cn4)CC3)cc2)n1 [Example 126, 5-Fluoro-1′-[4-(3-methyl-[1,2,4]oxadiazol-5-yl)-benzoyl]-2′,3′,5′,6′-tetrahydro-1′H-[2,4′]bipyridinyl-4′-carboxylic acid [(S)-1-(4-fluoro-phenyl)-ethyl]-amide] | 93.7
20 | C[C@H](NC(=O)C1(c2ccccc2)CCN(C(=O)c2ccc(N3CCOCC3)nc2)CC1)c1ccccc1 [Example 10, 1-(6-Morpholin-4-yl-pyridine-3-carbonyl)-4-phenyl-piperidine-4-carboxylic acid ((S)-1-phenyl-ethyl)-amide] | 76.8
21 | C[C@H](NC(=O)C1(c2ccccc2)CCN(C(=O)c2csc(-c3ccncc3)n2)CC1)c1ccccc1 [Example 27, 4-Phenyl-1-(2-pyridin-4-yl-thiazole-4-carbonyl)-piperidine-4-carboxylic acid ((S)-1-phenyl-ethyl)-amide] | 76.5
22 | Cc1nc(-c2ccc(C(=O)N3CCC(C(=O)N[C@@H](C)c4ccc(F)cc4)(c4ccccc4)CC3)cc2)no1 [Example 77, 1-[4-(5-Methyl-[1,2,4]oxa-diazol-3-yl)-benzoyl]-4-phenyl-piperidine-4-carboxylic acid [(S)-1-(4-fluoro-phenyl)-ethyl]-amide] | 12.2
23 | Cc1noc(-c2ccc(C(=O)N3CCC(C(=O)N[C@@H](C)c4ccc(F)cc4)(c4ccc(F)cc4)CC3)cc2)n1 [Example 88, 4-(4-Fluoro-phenyl)-1-{4-(3-methyl-[1,2,4]oxa-diazol-5-yl)-benzoyl] piperidine-4-carboxylic acid [(S)-1-(4-fluoro-phenyl)-ethyl]-amide] | 6.2
24 | Cc1nc(-c2ccc(C(=O)N3CCC(C(=O)N[C@H](c4cccc(F)c4)C4CC4)(c4ccc(F)cc4)CC3)cc2)no1 [Example 197, 4-(4-Fluoro-phenyl)-1-[4-(5-methyl-[1,2,4]oxadiazol-3-yl)-benzoyl]-piperidine-4-carboxylic acid [(S)-cyclopropyl-(3-fluoro-phenyl)-methyl]-amide] | 7.1
